Source: publication PMC2009384, “The carcinogenicity of polycyclic hydrocarbon epoxides in newborn mice” (British Journal of Cancer, 1975)

System: newborn Swiss mice
Assay: Experiment II: carcinogenicity in newborn mice, chrysene, 7-methylbenz(a)anthracene and K region epoxides (s.c. injection, tumour incidence to 70-75 weeks)
Text: Br. J. Cancer (1975) 31, 182 THE CARCINOGENICITY OF POLYCYCLIC HYDROCARBON EPOXIDES IN NEWBORN MICE P. L. GROVER, P. SIMS, B. C. V. MITCHLEY AND F. J. C. ROE From the Chester Beatty Research Institute, Institute of Cancer Research, Royal Cancer Hospital, Fulham Road, London, SW3 6JB Received 9 August 1974. […] THE HYPOTHESIS that the carcino- genicity of polycyclic hydrocarbons is associated with the formation of epoxide metabolites (Grover, Hewer and Sims, 1971, 1972; Keysell et al., 1973) is sup- ported by some experimental evidence but remains unproven. […] The epoxides can also act as alkylating agents (Grover and Sims, 1970) and as mutagens (Ames, Sims and Grover, 1972; Huberman et al., 1971; Cookson, Sims and Grover, 1971; Fahmy and Fahmy, 1973). […] The newborn mouse, which is susceptible to carcinogenic polycyclic hydrocarbons (Roe, Rowson and Salaman, 1961; Roe, Mitchley and Walters, 1963; Walters and Roe, 1964, 1966) can be considered as a convenient source of several types of rapidly dividing cells. Consequently we have tested the K region epoxides derived from phenanthrene, benz(a)anthracene, 7-methylbenz(a)anthracene, dibenz(a,h)- anthracene, chrysene and 3-methylchol- anthrene, together with some of the CARCINOGENICITY OF POLYCYCLIC HYDROCARBON EPOXIDES IN MICE 183 parent hydrocarbons, for carcinogenicity using newborn mice. This paper presents the results that were obtained in these experiments. MATERIALS AND METHODS The polycyclic hydrocarbon epoxides, phenanthrene 9,10-oxide, benz(a)anthracene 5,6-oxide, 7-methylbenz(a)anthracene 5,6- oxide, dibenz(a,h)anthracene 5,6-oxide, chry- sene 5,6-oxide and 3-methylcholanthrene 11,12-oxide were prepared from the parent hydrocarbons (Newman and Blum, 1964; Boyland and Sims, 1965; Sims 1966). Two experiments were undertaken fol- lowing similar protocols. For each experi- ment Swiss mice from a specific pathogen- free colony were time mated so as to produce a large number of litters over the course of 2 or 3 days. […] Test compounds were suspended in poly- ethylene glycol (PEG) 400 and injections of 0-02 ml of the suspension were given by introducing a 25 gauge hypodermic needle through the skin near the root of the tail and threading it subcutaneously to deliver the injected material in the interscapular region. Injections were given to every mouse on the first day or first 3 days of life. The details of treatments and numbers of mice of each sex in each group are shown in Table I (Experiment I) and Table II (Ex- periment II). Surviving mice were weaned when they w ere 21 days old. Thereafter, males and females w ere separated and housed 6 per cage in metal boxes. A mixture of sawdust and wood shavings was used as bedding. The mice were fed on a standard cubed diet (Formulation 86 from C. Holdman and Sons (Plow co Feeds), Byers Lane, South Godstone, Surrey) and water was given ad libitum. Mice were inspected daily, and at weekly intervals they were weighed and palpated for tumours and other lesions. […] The experiment was terminated when surviving mice were between 70 and 75 weeks old. A full routine post- mortem examination, which included disten- sion of the urinary bladder with fixative, was carried out. The number of lesions thought to be neoplasms and the size of the largest such lesion in each organ affected were recorded. All tissues with suspected neoplasms were fixed in Bouin's solution. Haematoxylin and eosin stained 5 µm paraffin wax sections were prepared and examined microscopically. RESULTS The results of the two experiments in terms of tumour incidence are sum- marized in […].

[1] = females, 100 µg per treatment, 3 treatments
[2] = females, 100 µg per treatment, 3 treatments (Days 0, 1 and 2) s.c. in PEG 400
[3] = males, 100 µg per treatment, 3 treatments
[4] = males, 100 µg per treatment, 3 treatments (Days 0, 1 and 2) s.c. in PEG 400
[5] = females, 60 µg, 1 treatment (Day 0 only) s.c. in PEG 400
[6] = males, 60 µg, 1 treatment (Day 0 only) s.c. in PEG 400

c1ccc2c(c1)ccc1c3ccccc3ccc21 [Chrysene, reference compound]
liver tumour incidence (3 x 100 µg s.c., newborn): increased | No. of mice examined at p.m. at termination of experiment (70-75th week) with liver tumours [1]: 0 | No. of mice examined at p.m. at termination of experiment (70-75th week) with lung tumours [1]: 0 | No. of mice examined at p.m. at termination of experiment (70-75th week) with multiple liver tumours [1]: 0 | No. of mice examined at p.m. at termination of experiment (70-75th week) with multiple lung tumours [1]: 0 | No. of mice examined at p.m. at termination of experiment (70-75th week) with other tumours [1]: 0 | No. of mice examined at p.m. from 50-70th week with liver tumours [1]: 0 | No. of mice examined at p.m. from 50-70th week with lung tumours [1]: 0 | No. of mice examined at p.m. from 50-70th week with other tumours [1]: 0 | No. of survivors at 50 weeks [2]: 22 | No. of survivors at 70 weeks [2]: 21 | No. of mice examined at p.m. at termination of experiment (70-75th week) with liver tumours [3]: 13 | No. of mice examined at p.m. at termination of experiment (70-75th week) with lung tumours [3]: 1 | No. of mice examined at p.m. at termination of experiment (70-75th week) with multiple liver tumours [3]: 6 | No. of mice examined at p.m. at termination of experiment (70-75th week) with multiple lung tumours [3]: 1 | No. of mice examined at p.m. at termination of experiment (70-75th week) with other tumours [3]: 0 | No. of mice examined at p.m. from 50-70th week with liver tumours [3]: 0 | No. of mice examined at p.m. from 50-70th week with lung tumours [3]: 0 | No. of mice examined at p.m. from 50-70th week with other tumours [3]: 0 | No. of survivors at 50 weeks [4]: 28 | No. of survivors at 70 weeks [4]: 27

c1ccc2c(c1)-c1ccc3ccccc3c1C1OC21 (centres unmarked) [Chrysene 5,6-oxide]
liver tumour incidence (3 x 100 µg s.c., newborn): increased | No. of mice examined at p.m. at termination of experiment (70-75th week) with liver tumours [1]: 1 | No. of mice examined at p.m. at termination of experiment (70-75th week) with multiple liver tumours [1]: 0 | No. of mice examined at p.m. at termination of experiment (70-75th week) with multiple lung tumours [1]: 0 | No. of mice examined at p.m. at termination of experiment (70-75th week) with other tumours [1]: 0 | No. of mice examined at p.m. from 50-70th week with liver tumours [1]: 0 | No. of mice examined at p.m. from 50-70th week with lung tumours [1]: 0 | No. of mice examined at p.m. from 50-70th week with other tumours [1]: 0 | No. of survivors at 50 weeks [2]: 22 | No. of survivors at 70 weeks [2]: 20 | No. of mice examined at p.m. at termination of experiment (70-75th week) with liver tumours [3]: 8 | No. of mice examined at p.m. at termination of experiment (70-75th week) with lung tumours [3]: 0 | No. of mice examined at p.m. at termination of experiment (70-75th week) with multiple liver tumours [3]: 3 | No. of mice examined at p.m. at termination of experiment (70-75th week) with multiple lung tumours [3]: 0 | No. of mice examined at p.m. at termination of experiment (70-75th week) with other tumours [3]: 0 | No. of mice examined at p.m. from 50-70th week with liver tumours [3]: 0 | No. of mice examined at p.m. from 50-70th week with lung tumours [3]: 0 | No. of mice examined at p.m. from 50-70th week with other tumours [3]: 0 | No. of survivors at 50 weeks [4]: 23 | No. of survivors at 70 weeks [4]: 21

c1ccc2c(c1)-c1cc3ccc4ccccc4c3cc1C1OC21 (centres unmarked) [Dibenz(a,h)anthracene 5,6-oxide]
No. of mice examined at p.m. at termination of experiment (70-75th week) with liver tumours (females, 60 µg, 1 treatment): 0 | No. of mice examined at p.m. at termination of experiment (70-75th week) with lung tumours (females, 60 µg, 1 treatment): 1 | No. of mice examined at p.m. at termination of experiment (70-75th week) with multiple liver tumours (females, 60 µg, 1 treatment): 0 | No. of mice examined at p.m. at termination of experiment (70-75th week) with multiple lung tumours (females, 60 µg, 1 treatment): 0 | No. of mice examined at p.m. at termination of experiment (70-75th week) with other tumours (females, 60 µg, 1 treatment): 1 | No. of mice examined at p.m. from 50-70th week with liver tumours (females, 60 µg, 1 treatment): 0 | No. of mice examined at p.m. from 50-70th week with lung tumours (females, 60 µg, 1 treatment): 0 | No. of mice examined at p.m. from 50-70th week with other tumours (females, 60 µg, 1 treatment): 0 | No. of survivors at 50 weeks [5]: 20 | No. of survivors at 70 weeks [5]: 19 | effect on the incidence of liver, lung or other tumours (in the doses tested (3 x 100 µg or 1 x 60 µg)): without apparent effect | No. of mice examined at p.m. at termination of experiment (70-75th week) with liver tumours (males, 60 µg, 1 treatment): 2 | No. of mice examined at p.m. at termination of experiment (70-75th week) with lung tumours (males, 60 µg, 1 treatment): 0 | No. of mice examined at p.m. at termination of experiment (70-75th week) with multiple liver tumours (males, 60 µg, 1 treatment): 1 | No. of mice examined at p.m. at termination of experiment (70-75th week) with multiple lung tumours (males, 60 µg, 1 treatment): 0 | No. of mice examined at p.m. at termination of experiment (70-75th week) with other tumours (males, 60 µg, 1 treatment): 0 | No. of mice examined at p.m. from 50-70th week with liver tumours (males, 60 µg, 1 treatment): 0 | No. of mice examined at p.m. from 50-70th week with lung tumours (males, 60 µg, 1 treatment): 0 | No. of mice examined at p.m. from 50-70th week with other tumours (males, 60 µg, 1 treatment): 0 | No. of survivors at 50 weeks [6]: 19 | No. of survivors at 70 weeks [6]: 16

Cc1c2c(cc3ccccc13)-c1ccccc1C1OC21 (centres unmarked) [7-Methylbenz(a)anthracene 5,6-oxide]
incidence of lung tumours (3 x 100 µg s.c., newborn, 7-methylbenz(a)anthracene pair): slightly raised | No. of mice examined at p.m. at termination of experiment (70-75th week) with liver tumours [1]: 0 | No. of mice examined at p.m. at termination of experiment (70-75th week) with lung tumours [1]: 6 | No. of mice examined at p.m. at termination of experiment (70-75th week) with multiple liver tumours [1]: 0 | No. of mice examined at p.m. at termination of experiment (70-75th week) with multiple lung tumours [1]: 3 | No. of mice examined at p.m. at termination of experiment (70-75th week) with other tumours [1]: 0 | No. of mice examined at p.m. from 50-70th week with liver tumours [1]: 0 | No. of mice examined at p.m. from 50-70th week with lung tumours [1]: 1 | No. of mice examined at p.m. from 50-70th week with other tumours [1]: 0 | No. of survivors at 50 weeks [2]: 25 | No. of survivors at 70 weeks [2]: 22 | No. of mice examined at p.m. at termination of experiment (70-75th week) with liver tumours [3]: 4 | No. of mice examined at p.m. at termination of experiment (70-75th week) with lung tumours [3]: 2 | No. of mice examined at p.m. at termination of experiment (70-75th week) with multiple liver tumours [3]: 2 | No. of mice examined at p.m. at termination of experiment (70-75th week) with multiple lung tumours [3]: 2 | No. of mice examined at p.m. at termination of experiment (70-75th week) with other tumours [3]: 0 | No. of mice examined at p.m. from 50-70th week with liver tumours [3]: 0 | No. of mice examined at p.m. from 50-70th week with lung tumours [3]: 0 | No. of mice examined at p.m. from 50-70th week with other tumours [3]: 0 | No. of survivors at 50 weeks [4]: 20 | No. of survivors at 70 weeks [4]: 20
